Molecular target: RORγ/γt (Mus musculus, UniProt P51450, T352K)
Experiment: RORγ/γt-luc reporter S2 cell assay / HTS (firefly luciferase)
Conditions: for Curve Class: RORγ/γt HTS concentration response curve class
Description: The Drosophila S2 cell line was originally purchased from Invitrogen and was maintained in Schneider's medium supplemented with 10% heat-inactivated bovine fetal calf serum and antibiotics (Invitrogen). Gal4 DNA binding domain (G4 DBD) corresponding to amino acids 1 through 147 of Gal4 protein was PCR amplified to make a fusion construct with mouse RORγt (amino acids 79 to the carboxyl terminal end) lacking its DNA binding domain. The resulting chimeric gene was subcloned into the copper inducible pMT/V5-His A vector (available from Invitrogen). In a similar manner, Gal4 fusion constructs were prepared with mouse RORα (amino acids 142 to end) or Drosophila DHR3 (amino acids 120 to end).
In order to generate stable cell lines, cells were co-transfected with pMT-G4 DBD-RORγt, pMT-G4 DBD-RORα, pMT-G4 DBD-DHR3, or pMT-G4DBDVP16 and pHygro plasmids (Invitrogen) and screened for resistant colonies in the presence of hygromycin (0.3 mg/mL). More than 150 independent RORγ stable clones with luciferase reporters (pMt-RORγ_luc) were tested for their suitability for the high-throughput screening (HTS) based on the following criteria: high signal-to background ratio in 384- and 1,536-well plates, their high induction rate upon the addition of copper, and RORγ/γt specificity probed by the dsRORγ- or RORγ/γt antagonist-mediated suppression. Positive clones were further transfected with pUAST-firefly luciferase, polIII-Renilla luciferase, and pCoPuro (Iwaki, Figuera et al. 2003) (“Rapid selection of Drosophila S2 cells with the puromycin resistance gene.” Biotechniques 35(3): 482-4, 486.) and selected with puromycin (2.5 ug/ml). […] Using similar methods, stable clones with genomic integration of the luciferase reporters and other reporters were generated such as pMT-RORα_luc, pMT-DHR3_luc, or pMT-VP16_luc.
600 G4 DBD-RORγ/γt-luc reporter (#25) or G4 DBD-VP16-luc reporter cells were distributed into each well of 1,536-well white bottom plates in 4 μl S2 cell culture volume containing hygromicin (300 μg/ml) and puromycin (2 μg/ml). Small compounds in seven different concentrations range from 46 μM to 1.7 nM were pin-transferred (23 nl) by a robot (Inglese et al., 2006, Proc. Natl. Acad. Sci. 103:11473-8). […] After 20-hour incubation at ambient temperature, 1.5 μl firefly luciferase detection mix was added and the luciferase activities were measured in 10 min. ViewLux luminometers were used for measuring luciferase signal.
Since their cognate DNA binding sites were not well characterized, the DNA binding domains (DBD) of RORγ/γt, RORα(mouse homolog for PORγ), and DHR3 (Drosophila orthologue for ROR family proteins) were replaced with the heterologous yeast GAL4 DBD. The transcriptionally active domain of general transcriptional activator VP16 was also fused with GAL4 DBD.

RORγ/γt, sequence (P51450 with tags, fused parts or gaps T352K): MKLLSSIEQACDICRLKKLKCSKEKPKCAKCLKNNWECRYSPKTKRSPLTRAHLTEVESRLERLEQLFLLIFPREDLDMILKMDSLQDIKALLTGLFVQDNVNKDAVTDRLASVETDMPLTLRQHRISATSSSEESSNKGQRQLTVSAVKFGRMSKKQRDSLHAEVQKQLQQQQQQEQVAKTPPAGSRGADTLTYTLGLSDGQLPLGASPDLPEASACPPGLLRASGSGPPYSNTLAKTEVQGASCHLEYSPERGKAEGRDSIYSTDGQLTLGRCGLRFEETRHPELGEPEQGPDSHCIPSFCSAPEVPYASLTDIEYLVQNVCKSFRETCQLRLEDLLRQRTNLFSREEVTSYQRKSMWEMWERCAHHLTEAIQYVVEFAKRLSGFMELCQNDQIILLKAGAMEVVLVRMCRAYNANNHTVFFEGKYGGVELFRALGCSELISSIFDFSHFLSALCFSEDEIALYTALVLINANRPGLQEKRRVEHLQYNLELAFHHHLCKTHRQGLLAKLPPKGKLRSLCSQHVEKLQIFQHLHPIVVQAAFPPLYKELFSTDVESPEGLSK

IC50 [µM] | 80% Inhib. @ (RORγ/γt reporter, S2 cells, concentration for 80% inhibition) [µM] | SMILES | AC50 [µM] | Curve Class
– | – | CCOC(=O)[C@@H]1[C@H]2COc3ccccc3[C@@H]2N2C(=O)N(c3cccc(Cl)c3)C(=O)[C@@]12C [MLS001066276-01] | 17.8 | −3
– | – | CCOC(=O)[C@@H]1[C@H]2COc3ccc(Br)cc3[C@H]2N2C(=O)N(c3ccc(F)cc3)C(=O)[C@]12C [MLS001066253-01] | – | 4
– | – | CCOC(=O)[C@@H]1[C@H]2COc3cc(OC)ccc3[C@@H]2N2C(=O)N(c3cccc(F)c3)C(=O)[C@]12C [MLS001066241-01] | 3.98 | 4
– | – | CCOC(=O)[C@@H]1[C@H]2COc3ccccc3[C@H]2N2C(=O)N(c3ccc(F)cc3)C(=O)[C@]12C [MLS001066503-01] | 2.51 | 4
– | – | CCOC(=O)[C@@H]1[C@H]2COc3ccccc3[C@@H]2N2C(=O)N(c3ccc(Cl)cc3)C(=O)[C@]12C [MLS001066434-01] | 3.16 | 4
– | – | CCOC(=O)[C@@H]1[C@H]2COc3ccc(Br)cc3[C@H]2N2C(=O)N(c3cccc(F)c3)C(=O)[C@]12C [MLS001066046-01] | 0.0126 | 4
– | – | CCOC(=O)[C@@H]1[C@H]2COc3ccc(Br)cc3[C@@H]2N2C(=O)N(c3ccc(OC)cc3)C(=O)[C@]12C [MLS001066294-01] | 0.112 | 4
– | – | CCOC(=O)[C@@H]1[C@H]2COc3ccccc3[C@@H]2N2C(=O)N(c3ccccc3)C(=O)[C@@]12C [MLS001066482-01] | 12.6 | −2.1
– | – | CCOC(=O)[C@@H]1[C@H]2COc3cc(OC)ccc3[C@@H]2N2C(=O)N(c3ccc(C(F)(F)F)cc3)C(=O)[C@@]12C [MLS001066319-01] | 15.8 | −3
– | – | CCOC(=O)[C@@H]1[C@H]2COc3ccc(Br)cc3[C@H]2N2C(=O)N(c3ccc(Cl)cc3)C(=O)[C@@]12C [MLS001066313-01] | 0.0447 | 4
– | – | CCOC(=O)[C@@H]1[C@H]2COc3cc(OC)ccc3[C@@H]2N2C(=O)N(c3ccc(F)cc3)C(=O)[C@]12C [MLS001066228-01] | 0.141 | 4
– | – | CCOC(=O)[C@@H]1[C@H]2COc3ccccc3[C@H]2N2C(=O)N(c3ccccc3)C(=O)[C@]12C [MLS001066502-01] | 0.794 | 4
– | – | CCOC(=O)[C@@H]1[C@H]2COc3cc(OC)ccc3[C@@H]2N2C(=O)N(c3ccc(OC)cc3)C(=O)[C@]12C [MLS001066279-01] | – | 4
– | – | CCOC(=O)[C@@H]1[C@H]2COc3ccc(Br)cc3[C@H]2N2C(=O)N(c3cccc(Cl)c3)C(=O)[C@]12C [MLS001066096-01] | 8.91 | −2.2
– | – | CCOC(=O)[C@@H]1[C@H]2COc3cc(OC)ccc3[C@H]2N2C(=O)N(c3cccc(Cl)c3)C(=O)[C@]12C [MLS001066301-01] | 0.631 | 4
– | – | CCOC(=O)[C@@H]1[C@H]2COc3cc(OC)ccc3[C@H]2N2C(=O)N(c3ccc(C)cc3)C(=O)[C@@]12C [MLS001066297-01] | 0.891 | 4
– | – | CCOC(=O)[C@@H]1[C@H]2COc3ccccc3[C@@H]2N2C(=O)N(c3cccc(C)c3)C(=O)[C@]12C [MLS001066305-01] | 0.891 | 4
– | – | CCOC(=O)[C@@H]1[C@H]2COc3ccccc3[C@H]2N2C(=O)N(c3ccc(Cl)cc3)C(=O)[C@]12C [MLS001066444-01] | 0.0071 | 4
– | – | CCOC(=O)[C@@H]1[C@H]2COc3cc(OC)ccc3[C@@H]2N2C(=O)N(c3ccc(C(F)(F)F)cc3)C(=O)[C@]12C [MLS001066230-01] | – | 4
– | – | CCOC(=O)[C@@H]1[C@H]2COc3cc(OC)ccc3[C@@H]2N2C(=O)N(c3cccc(F)c3)C(=O)[C@@]12C [MLS001066231-01] | 10 | −2.1
– | – | CCOC(=O)[C@@H]1[C@H]2COc3ccc(Br)cc3[C@H]2N2C(=O)N(c3ccc(F)cc3)C(=O)[C@@]12C [MLS001066263-01] | 0.0045 | 4
– | – | CCOC(=O)[C@@H]1[C@H]2COc3ccccc3[C@H]2N2C(=O)N(c3ccc(Cl)cc3)C(=O)[C@@]12C [MLS001066454-01] | 11.2 | 4
– | – | CCOC(=O)[C@H]1[C@H]2COc3cc(OC)ccc3[C@@H]2N2C(=O)N(c3cccc(Cl)c3)C(=O)[C@@]12C [MLS001066321-01] | 6.31 | 4
– | – | CCOC(=O)[C@@H]1[C@H]2COc3ccc(Br)cc3[C@@H]2N2C(=O)N(c3ccc(C(F)(F)F)cc3)C(=O)[C@@]12C [MLS001066025-01] | – | 4
16.7 | 40.36 | CN1CCN(C(=O)CCN2C(=O)/C(=C\c3ccccc3F)SC2=S)CC1 [MLS001201644-02] | – | –
– | – | CCOC(=O)[C@@H]1[C@H]2COc3ccc(Br)cc3[C@@H]2N2C(=O)N(c3ccc(C)cc3)C(=O)[C@]12C [MLS0010660292-01] | 11.2 | 4
– | – | CCOC(=O)[C@@H]1[C@H]2COc3ccc(Br)cc3[C@H]2N2C(=O)N(c3ccc(C)cc3)C(=O)[C@]12C [MLS001066302-01] | – | 4

Source: US9101600B2, “Compounds as RORγt modulators and uses thereof” (New York University, priority 2010, dated 2015)
